# Source: patent US7625887B2, “Receptor agonists” (Takeda Pharmaceutical Company Limited, priority 2003, dated 2009)
# Legend:
# [1] = system: NCI-H716 cells; experiment: intracellular cAMP production increasing action in NCI-H716 cells; format: cell-based, human; details: 10 μM, 2 hrs; production amount in TLCA (50 μM) was 100%; Base 11
# Method: NCI-H716 (ATCC) was suspended in a medium (Dulbecco's Modified Eagle Medium (DMEM, Invitrogen) supplemented with 10% fetal bovine serum (Invitrogen), 100 U/ml penicillin and 100 μg/ml streptomycin), seeded in a 96 well plate, cultured for 2 days and used for cAMP production assay. As a cAMP assay buffer, modified Krebs-Ringer bicarbonate buffer (KRBH, 116 mM NaCl, 4.7 mM KCl, 1.2 mM KH2PO4, 1.2 MM MgSO4, 2.5 mM CaCl2, 25 mM NaHCO3, 24 mM HEPES pH 7.3), supplemented with glucose 5.5 mM, bovine serum albumin (BSA) 0.1%, and 3-isobutyl-1-methylxanthine (IBMX, Sigma) 1 mM, was used. The cells were washed once with cAMP assay buffer. Bile acids (50 μM) diluted with cAMP assay buffer or the compounds of the present invention (10 μM) were added thereto and the cells were incubated for 2 hrs. The culture supernatant was discarded, and the cAMP production amount was measured by cAMP Screen System (ABI). In the Table, Base means non-addition of a test compound.
# [2] = system: NCI-H716 cells; experiment: GLP-1 secretion from NCI-H716 cell line; format: cell-based, human; details: 5 μM, 2 hrs; secretion amount in Base was 100%
# Method: NCI-H716 cells secrete Glucagon-like peptide-1 (GLP-1). GLP-1 is a peptide useful for controlling blood glucose level because it acts on the pancreas to cause secretion of insulin and the like. In the same manner as in Experimental Example 9, NCI-H716 (ATCC) was seeded in a 96 well plate and, after incubation for 2 days, used for the following secretion test. As a buffer for secretion test, modified Krebs-Ringer bicarbonate buffer (KRBH, 116 mM NaCl, 4.7 mM KCl, 1.2 mM KH2PO4, 1.2 mM MgSO4, 2.5 mM CaCl2, 25 mM NaHCO3, 24 mM HEPES, pH 7.3) supplemented with glucose 5.5 mM and BSA 0.1% was used. The cells were washed once with the buffer for secretion test, preincubated at 37° C. under 5% CO2, bile acid diluted with the buffer for secretion test was added and the cells were cultured at 37° C. under 5% CO2 for 2 hrs. The cell culture supernatant was collected, cryopreserved and the GLP-1 content in the supernatant was measured using a GLP-1 measurement EIA kit (Linco) The results are shown in Table 9. In the Table, Base means non-addition of a test compound.
# [3] = system: guinea pig TGR5; experiment: cAMP production increasing activity in guinea pig TGR5 expressing CHO cells; format: cell-based; details: test compound 2 μM; 10 μM lithocholic acid = 100%; average of 3 groups
# [4] = system: guinea pig peripheral blood mononuclear cells; experiment: TNF secretion in LPS-stimulated guinea pig peripheral blood mononuclear cells; format: cell-based; details: 16 hrs, test compound 10 μM; non-addition: 160 with LPS, 13 without
# Method: (§1) The peripheral blood was taken from guinea pig, and mononuclear cell fraction was obtained by a density separation method using Ficoll-Paque PLUS (Amersham Pharmacia). The fraction at a concentration of 1×10^5/well was cultured for 16 hrs in the presence of […] LPS in a 96-well plate upon addition of bile acid or a test compound. The culture supernatant was collected and TNF and IL-6 in the supernatant were quantitated.
# The TNF secretion amount in the culture supernatant was measured in the same manner as in Experimental Example 7.
# [5] = system: guinea pig peripheral blood mononuclear cells; experiment: IL-6 secretion in LPS-stimulated guinea pig peripheral blood mononuclear cells; format: cell-based; details: 16 hrs, test compound 10 μM; non-addition: 520 with LPS, 32 without
# Method: as §1
# The quantitation of IL-6 in the culture supernatant was performed using IL-6 dependent cell line 7TD1 (RIKEN Institute) with its growth promoting action as an index. First, 7TD1 cells were suspended in a basic medium (RPMI1640 (Invitrogen) supplemented with 1% non-essential amino acid (Invitrogen) and 55 μM 2-mercaptoethanol (Invitrogen)) and seeded in a 96-well plate at a concentration of 2×10^3/well. Immediately after seeding, peripheral blood mononuclear cell culture supernatant diluted with a dilution medium (the above-mentioned basic medium supplemented with 10% FBS) was added and the cells were cultured for 2 days. The IL-6 content was determined by measuring the growth of the 7TD1 cells in the obtained culture product using a CellTiter-Glo (Promega). As the standard sample, human recombinant IL-6 (Genzyme) was used.
# [6] = system: guinea pig intestine primary culture cells; experiment: GLP-1 secretion from guinea pig intestine primary culture cells; format: cell-based; details: test compound 10 μM, 90 min
# Method: Colon mucous membrane of guinea pig (Hartley, male, Charles River Japan, Inc.) was removed and subjected to an enzyme treatment to give a cell dispersion according to the following method.
# The enzyme solution used was obtained by dissolving 5 mg/ml Collagenase (Sigma), 5 mg/ml Hyaluronidase (Sigma) and 0.5 mg/ml DNaseI (Sigma) in a medium. The medium used was Dulbecco's Modified Eagle Medium (DMEM, Invitrogen) supplemented with 4.5 g/l Glucose, 5% FBS (Invitrogen), 100 units/ml Penicillin (Invitrogen), 100 μg/ml Streptomycin (Invitrogen), 50 μg/ml Gentamicin (Invitrogen) and 20 mM Hepes (pH 7.3). After digestion by the enzyme solution at 37° C., the tissue sections were prepared into dispersed cells by passing through a pipette 4 times and the cells were collected. The collected cells were washed with a buffer (incubation buffer) obtained by adding 5.5 mM Glucose and 0.1% BSA to a modified Krebs-Ringer bicarbonate buffer (KRBH, 116 mM NaCl, 4.7 mM KCl, 1.2 mM KH2PO4, 1.2 MM MgSO4, 2.5 mM CaCl2, 25 mM NaHCO3, 24 mM HEPES, pH 7.3), and preincubated at 37° C. under 5% CO2 for 30 min. 0.1 μM Phorbol ester (Wako), 1% DPPIV inhibitor (Linco) and a test compound were added to the above-mentioned incubation buffer, and the obtained buffer was added to the cells after the aforementioned preincubation and incubated for 90 min. The culture supernatant was collected and cryopreserved. The concentration of GLP-1 released in the culture supernatant was measured using an ELISA kit (Linco).
# [7] = biological target: T1, human TGR5 (Homo sapiens, UniProt Q8TDU6); experiment: cAMP production increasing activity in human TGR5 expressing CHO cells; format: cell-based; details: read-out: EC50 value (concentration necessary to make the cAMP production amount 50%)
# T1 construct: expressed in transfected cells; host or cells: CHO cells
# T1 sequence (Q8TDU6 1-330): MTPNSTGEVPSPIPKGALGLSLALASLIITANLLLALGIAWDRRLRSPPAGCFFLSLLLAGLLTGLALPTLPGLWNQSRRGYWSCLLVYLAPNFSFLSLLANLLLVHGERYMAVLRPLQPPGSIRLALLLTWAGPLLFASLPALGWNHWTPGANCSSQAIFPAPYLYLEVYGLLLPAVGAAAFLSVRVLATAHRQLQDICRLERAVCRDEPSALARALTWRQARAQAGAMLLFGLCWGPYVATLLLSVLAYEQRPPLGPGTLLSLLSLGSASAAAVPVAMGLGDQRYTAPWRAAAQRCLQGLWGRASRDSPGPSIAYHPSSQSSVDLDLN
SMILES,cAMP production increasing activity (%) [1],GLP-1 secretion increase (%) [2],cAMP producing activity (control %) [3],TNF α [4],IL-6 [5],GLP-1 (% relative to non-addition) [6],EC50 [7]
"CC(=O)NCc1cccc(C2OC(CC(=O)NCc3ccccc3C(F)(F)F)C(=O)N(CC(C)(C)C)c3ccc(Cl)cc32)c1 (stereo not drawn) [Example 14, 2-[3,5-trans-5-[3-(acetylaminomethyl)phenyl]-7-chloro-1-neopentyl-2-oxo-1,2,3,5-tetrahydro-4,1-benzoxazepin-3-yl]-N-[2-(trifluoromethyl)benzyl]acetamide]",104%,157%,76 control %,83 pg/mL,260 pg/mL,167 % relative to non-addition,< 100 nM
"O=S(=O)(c1cc(C(F)(F)F)cc(C(F)(F)F)c1)N1CCOc2nccc(-c3ccccc3)c2C1 [Example 22C, 4-{[3,5-bis(trifluoromethyl)phenyl]sulfonyl}-6-phenyl-2,3,4,5-tetrahydropyrido[3,2-f][1,4]oxazepine]",100%,127%,101 control %,66 pg/mL,170 pg/mL,313 % relative to non-addition,–
